Eleven molecules from ChEMBL document CHEMBL5442219 can be followed below.

Conditions in all cases: Compound concentration 10 µM
Assay [1] has as its target T1, Alpha-1A adrenergic receptor (Homo sapiens) (UniProt P35348).
T1 sequence (whole entry): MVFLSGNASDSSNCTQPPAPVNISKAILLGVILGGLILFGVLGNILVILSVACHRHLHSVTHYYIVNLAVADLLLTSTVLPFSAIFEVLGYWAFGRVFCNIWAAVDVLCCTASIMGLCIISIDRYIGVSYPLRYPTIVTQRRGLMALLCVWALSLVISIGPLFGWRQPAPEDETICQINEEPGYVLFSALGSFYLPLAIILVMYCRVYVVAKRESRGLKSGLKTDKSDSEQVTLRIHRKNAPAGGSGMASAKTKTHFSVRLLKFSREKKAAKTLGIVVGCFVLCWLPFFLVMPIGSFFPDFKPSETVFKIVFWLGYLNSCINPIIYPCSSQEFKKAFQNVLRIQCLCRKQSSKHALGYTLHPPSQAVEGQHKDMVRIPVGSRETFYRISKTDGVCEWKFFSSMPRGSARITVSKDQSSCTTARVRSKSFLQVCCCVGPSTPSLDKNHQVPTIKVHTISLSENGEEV
Description: PDSP Primary Binding target: ADRA1A - Compounds are tested at 10 uM concentration, plate are incubated at room temperature in the dark for 90 minutes. Reaction are stopped by vacuum filtration onto 0.3% polyethyleneimine soaked filter mats using Filtermate harvester. Scintilation cocktail is then melted onto microwave-dried filters on a hot plate and the radio activity is counted in Microbia counter.

Assay [2] deals with 5-hydroxytryptamine receptor 6 (Homo sapiens) (UniProt P50406).
5-hydroxytryptamine receptor 6 (Homo sapiens), sequence (P50406 whole entry): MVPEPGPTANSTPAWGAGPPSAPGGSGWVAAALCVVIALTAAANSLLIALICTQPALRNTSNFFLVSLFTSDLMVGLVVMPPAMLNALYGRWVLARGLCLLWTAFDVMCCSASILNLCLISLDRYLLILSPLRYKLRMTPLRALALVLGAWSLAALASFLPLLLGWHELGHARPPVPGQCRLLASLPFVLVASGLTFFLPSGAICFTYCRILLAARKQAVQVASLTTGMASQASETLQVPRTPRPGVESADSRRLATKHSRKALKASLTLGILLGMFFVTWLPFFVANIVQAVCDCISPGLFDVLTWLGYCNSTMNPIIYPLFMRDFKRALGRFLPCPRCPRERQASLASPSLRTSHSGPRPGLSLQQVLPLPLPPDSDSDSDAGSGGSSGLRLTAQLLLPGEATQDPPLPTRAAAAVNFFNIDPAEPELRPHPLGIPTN
Description: PDSP Primary Binding target: HTR6 - Compounds are tested at 10 uM concentration, plate are incubated at room temperature in the dark for 90 minutes. Reaction are stopped by vacuum filtration onto 0.3% polyethyleneimine soaked filter mats using Filtermate harvester. Scintilation cocktail is then melted onto microwave-dried filters on a hot plate and the radio activity is counted in Microbia counter.
In assay [3] the target is 5-hydroxytryptamine receptor 7 (Homo sapiens) (UniProt P34969).
5-hydroxytryptamine receptor 7 (Homo sapiens), sequence (P34969 whole entry): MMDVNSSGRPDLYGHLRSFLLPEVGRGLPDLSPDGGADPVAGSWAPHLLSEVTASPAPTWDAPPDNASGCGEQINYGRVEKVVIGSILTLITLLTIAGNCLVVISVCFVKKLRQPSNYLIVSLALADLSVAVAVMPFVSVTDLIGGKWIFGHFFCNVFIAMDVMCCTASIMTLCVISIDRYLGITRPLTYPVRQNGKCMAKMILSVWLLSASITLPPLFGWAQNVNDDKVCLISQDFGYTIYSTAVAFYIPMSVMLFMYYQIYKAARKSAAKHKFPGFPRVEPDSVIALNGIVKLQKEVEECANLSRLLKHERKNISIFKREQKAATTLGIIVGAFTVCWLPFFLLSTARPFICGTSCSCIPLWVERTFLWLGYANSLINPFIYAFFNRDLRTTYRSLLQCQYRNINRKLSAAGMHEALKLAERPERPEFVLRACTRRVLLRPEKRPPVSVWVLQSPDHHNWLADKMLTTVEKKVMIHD
Description: PDSP Primary Binding target: HTR7 - Compounds are tested at 10 uM concentration, plate are incubated at room temperature in the dark for 90 minutes. Reaction are stopped by vacuum filtration onto 0.3% polyethyleneimine soaked filter mats using Filtermate harvester. Scintilation cocktail is then melted onto microwave-dried filters on a hot plate and the radio activity is counted in Microbia counter.
For assay [4], the target named is Sigma intracellular receptor 2 (Homo sapiens) (UniProt Q5BJF2).
Sigma intracellular receptor 2 (Homo sapiens), sequence (Q5BJF2 whole entry): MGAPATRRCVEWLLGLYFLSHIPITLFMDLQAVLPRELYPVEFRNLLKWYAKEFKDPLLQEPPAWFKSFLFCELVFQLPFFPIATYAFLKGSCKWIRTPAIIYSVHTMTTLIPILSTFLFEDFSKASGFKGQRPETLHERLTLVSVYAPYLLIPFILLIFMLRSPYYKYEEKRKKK
Description: PDSP Primary Binding target: TMEM97 - Compounds are tested at 10 uM concentration, plate are incubated at room temperature in the dark for 90 minutes. Reaction are stopped by vacuum filtration onto 0.3% polyethyleneimine soaked filter mats using Filtermate harvester. Scintilation cocktail is then melted onto microwave-dried filters on a hot plate and the radio activity is counted in Microbia counter.
Assay [5] has as its target Sodium-dependent noradrenaline transporter (Homo sapiens) (UniProt P23975).
Description: PDSP Primary Binding target: SLC6A2 - Compounds are tested at 10 uM concentration, plate are incubated at room temperature in the dark for 90 minutes. Reaction are stopped by vacuum filtration onto 0.3% polyethyleneimine soaked filter mats using Filtermate harvester. Scintilation cocktail is then melted onto microwave-dried filters on a hot plate and the radio activity is counted in Microbia counter.
Assay [6] has as its target Sodium-dependent serotonin transporter (Homo sapiens) (UniProt P31645).
Description: PDSP Primary Binding target: SLC6A4 - Compounds are tested at 10 uM concentration, plate are incubated at room temperature in the dark for 90 minutes. Reaction are stopped by vacuum filtration onto 0.3% polyethyleneimine soaked filter mats using Filtermate harvester. Scintilation cocktail is then melted onto microwave-dried filters on a hot plate and the radio activity is counted in Microbia counter.
The target in assay [7] is 5-hydroxytryptamine receptor 1E (Homo sapiens) (UniProt P28566).
5-hydroxytryptamine receptor 1E (Homo sapiens), sequence (P28566 whole entry): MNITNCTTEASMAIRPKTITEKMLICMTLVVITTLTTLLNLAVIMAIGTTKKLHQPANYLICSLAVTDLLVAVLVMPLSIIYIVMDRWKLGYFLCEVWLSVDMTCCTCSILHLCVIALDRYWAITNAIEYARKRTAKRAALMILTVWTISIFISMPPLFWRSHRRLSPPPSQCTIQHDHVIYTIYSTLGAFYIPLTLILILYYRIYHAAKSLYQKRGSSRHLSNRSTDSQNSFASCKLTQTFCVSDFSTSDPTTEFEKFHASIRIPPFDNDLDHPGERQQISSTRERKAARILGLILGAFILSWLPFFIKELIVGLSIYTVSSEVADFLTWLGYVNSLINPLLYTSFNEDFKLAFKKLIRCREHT
Description: PDSP Primary Binding target: HTR1E - Compounds are tested at 10 uM concentration, plate are incubated at room temperature in the dark for 90 minutes. Reaction are stopped by vacuum filtration onto 0.3% polyethyleneimine soaked filter mats using Filtermate harvester. Scintilation cocktail is then melted onto microwave-dried filters on a hot plate and the radio activity is counted in Microbia counter.
In assay [8] the target is T2, 5-hydroxytryptamine receptor 3A (Homo sapiens) (UniProt P46098).
T2 sequence (whole entry): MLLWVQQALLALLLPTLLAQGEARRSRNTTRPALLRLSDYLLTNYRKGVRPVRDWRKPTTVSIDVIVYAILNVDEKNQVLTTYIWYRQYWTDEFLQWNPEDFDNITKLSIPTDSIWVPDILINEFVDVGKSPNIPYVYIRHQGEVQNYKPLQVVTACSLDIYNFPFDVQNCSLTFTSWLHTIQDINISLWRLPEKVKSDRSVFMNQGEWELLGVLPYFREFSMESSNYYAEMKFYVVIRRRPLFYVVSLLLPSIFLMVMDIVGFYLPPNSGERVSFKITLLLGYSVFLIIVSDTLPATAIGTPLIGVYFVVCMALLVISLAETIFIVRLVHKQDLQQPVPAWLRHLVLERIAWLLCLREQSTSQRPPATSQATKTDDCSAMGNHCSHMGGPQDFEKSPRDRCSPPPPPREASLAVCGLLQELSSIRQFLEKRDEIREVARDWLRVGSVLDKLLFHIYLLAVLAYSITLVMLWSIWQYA
Description: PDSP Primary Binding target: HTR3A - Compounds are tested at 10 uM concentration, plate are incubated at room temperature in the dark for 90 minutes. Reaction are stopped by vacuum filtration onto 0.3% polyethyleneimine soaked filter mats using Filtermate harvester. Scintilation cocktail is then melted onto microwave-dried filters on a hot plate and the radio activity is counted in Microbia counter.

Assay [9] concerns the target T3, Muscarinic acetylcholine receptor M5 (Homo sapiens) (UniProt P08912).
T3 sequence (whole entry): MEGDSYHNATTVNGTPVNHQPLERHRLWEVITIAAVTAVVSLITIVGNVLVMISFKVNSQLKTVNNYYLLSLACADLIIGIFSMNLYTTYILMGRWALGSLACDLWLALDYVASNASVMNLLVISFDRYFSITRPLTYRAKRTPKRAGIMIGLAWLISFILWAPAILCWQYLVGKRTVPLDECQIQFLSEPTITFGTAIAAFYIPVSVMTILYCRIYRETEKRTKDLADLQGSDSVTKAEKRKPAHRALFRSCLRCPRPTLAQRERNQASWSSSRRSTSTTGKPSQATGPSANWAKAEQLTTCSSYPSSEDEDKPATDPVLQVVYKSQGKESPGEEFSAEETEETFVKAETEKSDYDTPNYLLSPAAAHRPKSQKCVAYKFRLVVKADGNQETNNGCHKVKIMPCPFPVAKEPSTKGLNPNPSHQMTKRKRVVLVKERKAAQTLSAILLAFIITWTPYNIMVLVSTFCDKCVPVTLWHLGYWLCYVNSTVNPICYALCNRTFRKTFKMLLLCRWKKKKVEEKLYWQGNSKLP
Description: PDSP Primary Binding target: CHRM5 - Compounds are tested at 10 uM concentration, plate are incubated at room temperature in the dark for 90 minutes. Reaction are stopped by vacuum filtration onto 0.3% polyethyleneimine soaked filter mats using Filtermate harvester. Scintilation cocktail is then melted onto microwave-dried filters on a hot plate and the radio activity is counted in Microbia counter.

In assay [10] the target is T4, 5-hydroxytryptamine receptor 2C (Homo sapiens) (UniProt P28335).
T4 sequence (whole entry): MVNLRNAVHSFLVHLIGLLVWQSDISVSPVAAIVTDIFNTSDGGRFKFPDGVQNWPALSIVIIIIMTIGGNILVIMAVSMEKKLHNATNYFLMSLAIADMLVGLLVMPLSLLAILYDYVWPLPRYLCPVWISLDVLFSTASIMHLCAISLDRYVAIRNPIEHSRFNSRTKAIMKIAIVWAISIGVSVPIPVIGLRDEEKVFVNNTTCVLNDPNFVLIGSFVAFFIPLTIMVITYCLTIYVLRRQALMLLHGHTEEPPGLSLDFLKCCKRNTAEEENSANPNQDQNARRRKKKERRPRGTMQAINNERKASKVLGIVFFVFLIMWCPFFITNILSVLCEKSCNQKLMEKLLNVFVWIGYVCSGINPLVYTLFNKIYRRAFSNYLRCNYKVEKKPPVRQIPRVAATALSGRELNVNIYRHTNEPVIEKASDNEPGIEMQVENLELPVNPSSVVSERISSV
Description: PDSP Primary Binding target: HTR2C - Compounds are tested at 10 uM concentration, plate are incubated at room temperature in the dark for 90 minutes. Reaction are stopped by vacuum filtration onto 0.3% polyethyleneimine soaked filter mats using Filtermate harvester. Scintilation cocktail is then melted onto microwave-dried filters on a hot plate and the radio activity is counted in Microbia counter.

Assay [11] concerns the target T5, Alpha-2A adrenergic receptor (Homo sapiens) (UniProt P08913).
T5 sequence (whole entry): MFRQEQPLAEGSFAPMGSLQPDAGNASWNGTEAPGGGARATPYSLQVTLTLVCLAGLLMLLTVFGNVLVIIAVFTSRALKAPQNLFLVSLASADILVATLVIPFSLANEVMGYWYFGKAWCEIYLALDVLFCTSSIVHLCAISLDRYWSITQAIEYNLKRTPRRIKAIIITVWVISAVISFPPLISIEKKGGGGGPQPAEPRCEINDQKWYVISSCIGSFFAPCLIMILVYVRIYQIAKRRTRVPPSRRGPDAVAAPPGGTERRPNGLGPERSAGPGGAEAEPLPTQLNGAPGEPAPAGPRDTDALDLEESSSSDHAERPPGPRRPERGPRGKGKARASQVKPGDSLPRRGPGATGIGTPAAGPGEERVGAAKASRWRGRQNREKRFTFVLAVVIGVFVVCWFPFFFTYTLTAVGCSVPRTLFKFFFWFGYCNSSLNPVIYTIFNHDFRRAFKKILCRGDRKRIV
Description: PDSP Primary Binding target: ADRA2A - Compounds are tested at 10 uM concentration, plate are incubated at room temperature in the dark for 90 minutes. Reaction are stopped by vacuum filtration onto 0.3% polyethyleneimine soaked filter mats using Filtermate harvester. Scintilation cocktail is then melted onto microwave-dried filters on a hot plate and the radio activity is counted in Microbia counter.

Sodium-dependent serotonin transporter (Homo sapiens), sequence (P31645 whole entry, looked up): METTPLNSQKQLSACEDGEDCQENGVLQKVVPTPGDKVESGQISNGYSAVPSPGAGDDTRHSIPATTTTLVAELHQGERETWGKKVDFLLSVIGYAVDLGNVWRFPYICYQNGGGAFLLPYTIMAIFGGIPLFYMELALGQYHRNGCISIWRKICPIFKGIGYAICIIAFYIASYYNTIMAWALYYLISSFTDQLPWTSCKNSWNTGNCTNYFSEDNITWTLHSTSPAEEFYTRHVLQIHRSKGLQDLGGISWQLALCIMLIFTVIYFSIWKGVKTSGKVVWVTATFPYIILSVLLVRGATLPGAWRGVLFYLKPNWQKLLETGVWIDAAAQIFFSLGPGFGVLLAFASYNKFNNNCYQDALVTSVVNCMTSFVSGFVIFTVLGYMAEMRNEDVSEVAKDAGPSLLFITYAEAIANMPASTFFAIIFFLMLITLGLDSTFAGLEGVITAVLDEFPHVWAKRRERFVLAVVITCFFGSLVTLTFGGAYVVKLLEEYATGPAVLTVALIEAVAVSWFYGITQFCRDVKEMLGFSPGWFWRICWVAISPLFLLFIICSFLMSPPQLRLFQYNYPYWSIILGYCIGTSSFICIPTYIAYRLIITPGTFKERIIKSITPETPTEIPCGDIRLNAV
Sodium-dependent noradrenaline transporter (Homo sapiens), sequence (P23975 whole entry): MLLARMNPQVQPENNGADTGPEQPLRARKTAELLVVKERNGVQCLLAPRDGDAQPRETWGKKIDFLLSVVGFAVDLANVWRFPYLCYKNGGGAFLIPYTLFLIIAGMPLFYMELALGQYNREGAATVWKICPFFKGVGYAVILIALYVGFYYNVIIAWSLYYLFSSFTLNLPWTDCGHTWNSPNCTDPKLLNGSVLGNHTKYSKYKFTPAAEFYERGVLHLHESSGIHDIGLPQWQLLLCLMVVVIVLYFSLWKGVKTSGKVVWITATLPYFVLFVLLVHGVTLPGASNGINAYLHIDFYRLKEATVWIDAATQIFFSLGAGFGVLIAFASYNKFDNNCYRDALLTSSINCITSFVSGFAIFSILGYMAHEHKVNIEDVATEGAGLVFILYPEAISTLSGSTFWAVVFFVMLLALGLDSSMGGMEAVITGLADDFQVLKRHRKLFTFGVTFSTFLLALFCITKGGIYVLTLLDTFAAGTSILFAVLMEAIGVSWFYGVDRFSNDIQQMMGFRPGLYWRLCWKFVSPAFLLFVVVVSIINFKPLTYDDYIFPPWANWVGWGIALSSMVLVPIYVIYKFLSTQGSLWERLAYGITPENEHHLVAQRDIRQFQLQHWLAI

As for `O=S1(=O)c2cccc3cccc(c23)N1CCCN1CCN(c2ccc(F)cc2)CC1`, the inhibition is 97.8% in assay [1]; 52.9% in assay [2]; 90.5% in [3]; 96.9% in assay [4]; 65.1% in assay [5]; 81.7% in assay [6]. Besides, the inhibition is -4.51% in [7]; 32.9% in [8]; 15.9% in assay [9]; 97.4% in [10]; 96.8% in [11].

For `COC(=O)C1=C(C)NC(C)=C(C(=O)OCCCN2CCC(c3ccccc3)(c3ccccc3)CC2)[C@H]1c1cccc([N+](=O)[O-])c1`, the inhibition is 98.9% in [1]; 71.6% in [2]; 84.6% in assay [3]; 98.7% in assay [4]; 86.5% in [5]; 85.7% in [6]. Besides, the inhibition was 40% in assay [7]; 43.2% in [8]; 89.6% in [9]; 58.1% in assay [10]; 90.1% in assay [11].

For `CNC[C@H](O)c1cccc(O)c1`, the inhibition in assay [1] was 27.4%; in [2], 9.39%; in [3], 75.5%; in assay [4], 24.9%; in assay [5], 8.86%; in [6], 3.06%. In addition, the inhibition in assay [7] was 23.9%; in assay [8], 0.2%; in [9], -2.82%; in assay [10] it was 16.3%; in assay [11], 78.2%.

On to `OC1(c2ccc(Cl)cc2)CCN(Cc2c[nH]c3ccccc23)CC1`, for which the inhibition is 66.1% in assay [1]; -7.57% in assay [2]; 10.4% in assay [3]; 97.8% in assay [4]; 63.5% in [5]; 102% in assay [6]. In addition, the inhibition in [8] is -7.87%; in assay [9], 70.8%; in assay [10], 18.8%; in assay [11], 76.1%.

With `CCCCN1CCC(COC(=O)c2cc(Cl)c(N)c3c2OCCO3)CC1`, the inhibition was 52.9% in [1]; 20.1% in [2]; 40% in assay [3]; 96.8% in assay [4]; 42.9% in assay [5]; 14.6% in assay [6]. In addition, the inhibition in [7] is 22.6%; in assay [8], 72.4%; in [9], -7.37%; in [10], 58.2%; in assay [11], 66.1%.

Turning to `Cc1cccc([C@H](C)c2c[nH]cn2)c1C`, the inhibition was 63% in [1]; 1.41% in assay [2]; 68.1% in assay [3]; 37.8% in assay [4]; 50.9% in assay [5]; -4.26% in assay [6]. Further, the inhibition in [7] was -0.76%; in assay [8], 13.3%; in assay [9], 3.92%; in assay [10], 14.5%; in assay [11], 104%.

Regarding `CN1C(=O)[C@@H](NC(=O)c2cc3ccccc3[nH]2)N=C(c2ccccc2)c2ccccc21`, the inhibition was 2.69% in [1]; 25.7% in assay [2]; 13.6% in assay [3]; 8.74% in assay [4]; 28.5% in [5]; -8.05% in assay [6]. For the same molecule, the inhibition in assay [7] was -6.92%; in assay [8] it was 2.09%; in assay [9], -5.02%; in assay [10], 16.1%; in assay [11] it was 11.2%.

Turning to `NC[C@@H]1O[C@H](C23CC4CC(CC(C4)C2)C3)Cc2c1ccc(O)c2O`, the inhibition is -1.53% in assay [1]; 19.1% in [2]; 25.1% in [3]; 81.7% in assay [4]; 58.5% in assay [5]; 28.7% in [6]. The inhibition was 22.3% in [7]; 39.6% in [8]; 29.6% in [9]; 31.6% in assay [10]; 85.1% in assay [11].

With `O=C(Cc1ccc(Cl)c(Cl)c1)N1CCCC[C@H]1CN1CCCC1`, the inhibition was 31.2% in assay [1]; -5.65% in assay [2]; 31.1% in [3]; 92.3% in assay [4]; 23.7% in assay [5]; 33.9% in assay [6]. The inhibition in assay [7] was 1.08%; in assay [8], 5.92%; in assay [10], -3.64%; in assay [11], 30.3%.

As for `Nc1nc(NCCc2ccc(O)cc2)nc2nc(-c3ccco3)nn12`, the inhibition is -6.79% in assay [1]; 13.5% in assay [3]; 90.6% in assay [4]; 44.1% in assay [5]; -5.81% in assay [6]; 1.4% in assay [8]. Further, the inhibition in assay [10] is 8.15%; in assay [11] it was 19%.

Consider `COc1cccc([C@H](O)C2CCN(CCc3ccc(F)cc3)CC2)c1OC`, for which the inhibition in assay [1] is 31.6%; in [2], 5.14%; in assay [3], 34.5%; in assay [4], 95.9%; in assay [5] it was 45.2%; in [6], 27.2%. For the same molecule, the inhibition is -0.41% in assay [7], 9.53% in [8], -8.31% in assay [9] and 33.1% in assay [11].
